The values that follow come from patent US9107814B2, “Micelle composition of polymer and passenger drug” (Wisconsin Alumni Research Foundation, priority 2005, dated 2015).

Where two headings read alike, the source gives them in different places.

For data set [1] the following is noted: cited from earlier work.
The nature of data set [2]: paclitaxel prodrug loading and sizing of PEG-b-PCL micelles. The class given is physicochemical. The settings on record: for Solubilized / prodrug:caprolactone / prodrug w/w %: 20% w/w prodrug loading in 0.5-mM PEG-b-PCL micelles; for Diameter (intensity): DLS, PEG-PCL micelles prepared at 20% w/w drug; for Solubilized (in parentheses): after evaporation to 25% of original volume and refiltration (0.22-μm). The protocol:
The organic solvent was then removed by stirring under an air purge. Where stated, samples were further concentrated by prolonged evaporation under an air purge. After removing the organic solvent, PEG-b-PCL micelles were passed through a 0.22-μm polyestersulfone filter to remove insoluble material and unincorporated drug. In a typical experiment, […] of PEG-b-PCL was dissolved in 0.75 ml of dry acetone and added dropwise (50 μL/min) to 2 ml of ddH2O yielding 0.5-mM PEG-b-PCL micelles after removing the volatile organic solvent.
The incorporation of prodrugs into PEG-b-PCL micelles was verified by equivalent retention times in UV and RI chromatographs from gel permeation chromatography. PEG-b-PCL micelles were injected on an OHpak SB-806M GPC column (20-μL injections, 0.5-mM PEG-b-PCL, 0.75 ml/min of ddH2O, 10° C.) (Shodex, Kawasaki, Japan) and detected by refractive index (RI) and UV absorbance (232 nm). Prodrug loading into PEG-b-PCL micelles was quantitatively determined by reverse-phase HPLC (Alltech Econosphere 3-μm 4.6×50 mm) using a 0.01% (v/v) trifluoroacetic acid—ACN gradient (40-100% ACN, 50° C., 232-nm detection). Hydrodynamic diameters of PEG-b-PCL micelles were determined by dynamic light scattering (DLS) (NICOMP 380 ZLS, Particle Sizing Systems, Santa Barbara, Calif.). Data were analyzed by intensity-weighted Gaussian distribution fitting (NICOMP version 1.76). Measurements were made for a minimum of 10 min or at least 100×10^5 counts in channel 1.

A short description of data set [3]: physchem. Conditions: pH 7.
Description: (§1) The octanol-water partition coefficient of geldanamycin was determined by microemulsion electrokinetic chromatography.
(§2) Running buffer was prepared by titration of 25-mM sodium phosphate monobasic with 50-mM sodium tetraborate to pH 7.00, and 1.44 g of sodium dodecyl sulfate, 6.49 g of 1-butanol, and 0.82 g of heptane were made up to 100 ml with phosphate-borate buffer. The running buffer was ultrasonicated for 30 min in a closed 250-ml flask in ice water (G112SP1 Special Ultrasonic Cleaner, Laboratory Supplies Company Inc., Hicksville, N.Y.). […] Compounds and standards (n=3) were dissolved in the running buffer (0.05 mg/ml) with 0.5 μL/ml of nitromethane and 0.5 μL/ml of 1-phenyldodecane by ultrasonication (10 min) in a closed tube and centrifuged (16000×g, 3 min) to degas. A BioFocus 3000 capillary electrophoresis system (Bio-Rad, Hercules, Calif.) equipped with a 50-μm ID×37-cm uncoated fused-silica column (Polymicron Technologies LLC, Phoenix, Ariz.) was used for MEEKC experiments. The column was prewashed with 1-M NaOH for 5 min and before runs with 0.1-M NaOH for 1 min, ddH2O for 1 min, and running buffer for 1 min at 100 psi (690 kPa). Running conditions were 10 kV (ca. 30-35 μA, 30 min/run) at 20° C. with 1-psi·s injections (6.9 kPa·s) and detection at 210 and 232 nm. Log Po/w and retention factors, k′, were calculated using the equations:
(§3) [formula] [formula] where tr, t0, and tme are retention times of the prodrug, nitromethane, and 1-phenyldodecane, respectively. Fitting parameters a and b were determined by linear regression of known standards: pyridine, phenol, benzoic acid, anisole, benzene, toluene, dodecanoic acid, benzopyrene, and pyrene (R^2=0.996, Excel® 2003, Microsoft Corp.).
A short description of data set [4]: octanol-water partition coefficient by microemulsion electrokinetic chromatography (MEEKC). Conditions: for log Po/w: pH 7.00 running buffer, ± standard deviation (n = 3).
Description: as §1, §2, §3
For data set [5] the following is noted: cited from earlier work. This is another data set of the same source.
A short description of data set [6]: geldanamycin prodrug loading into and release from PEG-b-PCL micelles. The class given is physicochemical. The settings on record: for Diff Coef: 0.5 mM PEG-b-PCL (5000:10000 Da) micelles, pH 7.4 phosphate buffer, 37° C., 10000MWCO dialysis; for w/w drug/carrier / Conc: 0.5 mM PEG-b-PCL micelles; for w/w drug/carrier: target 25% wt loading; for Conc: target […]; for time after which almost/substantially all the drug is released: prodrug loaded micelles; for fraction released: prodrug in micelles. On the procedure: Drug diffusion was calculated as described in Forrest and Kwon, 2005 (Journal of Controlled Release).
PEG-PCL micelles are prepared by the drop-wise addition of geldanamycin prodrug and PEG-PCL dissolved in a miscible solvent, acetone, to vigorously stirred water, followed by removal of the solvent by N2 purge, and 0.2-μm filtration. Alternatively, the solution may be centrifuged to remove unincorporated and aggregated drug. The final solvent to water ratio is between about 0.1 and about 5, preferably between about 0.5 and about 4, and more preferably about 2. The micelle solution should be delivered at a rate of between about 2 s/drop and about 60 s/drop, preferably between about 5 s/drop and about 30 s/drop, and more preferably between about 10 s/drop and about 20 s/drop.

Data set [7] deals with MDA-MB-468 breast cancer cell line. The data set is described as follows: MTS cytotoxicity assay. The format is cell-based. The settings on record: MDA-MB-468, 4 days, drugs in 1% DMSO. The protocol: Cytotoxicities of the drugs to the MDA-MB-468 breast cancer cell line (ATCC) were determined. Cells are plated at a density of 3000 cells/well into 96 well plates (100 μl/well DMEM medium). After 24 hours, drugs were added dissolved in 1% DMSO. Cells were incubated with drugs for 4 days and toxicity determined using the MTS cytotoxicity assay according to manufacturer's directions (Promega, Madison, Wis.).
(In general: Tetrazolium dyes change colour on reduction, which living cells bring about.)

`CO[C@H]1/C=C\C=C(/C)C(=O)NC2=CC(=O)C(NCCN(C)C)=C(C[C@@H](C)C[C@H](OC)[C@H](O)[C@@H](C)/C=C(\C)[C@@H]1OC(N)=O)C2=O` [Prodrug 17DMAG]: in data set [1], the MTD dog is 8 mg/m^2.
In the case of `CC(=O)O[C@H]1C(=O)[C@@]2(C)[C@H]([C@H](OC(=O)c3ccccc3)[C@]3(O)C[C@H](OC(=O)[C@H](O)[C@@H](NC(=O)c4ccccc4)c4ccccc4)C(C)=C1C3(C)C)[C@]1(OC(C)=O)CO[C@@H]1C[C@@H]2O` [Paclitaxel, reference compound], in data set [2], the Solubilized was <0.2 mg/mL and the “prodrug:caprolactone” value is given as <1 mmol:mol. Moreover, the chromatographic logP (in general, a lipophilicity value derived from retention on a column) in data set [3] was determined as 4.4 ± 0.06.
Turning to `CCCCCCCCCCCCCCCC(=O)O[C@H]1C[C@H]2OC[C@@]2(OC(C)=O)[C@H]2[C@H](OC(=O)c3ccccc3)[C@]3(O)C[C@H](OC(=O)[C@H](O)[C@@H](NC(=O)c4ccccc4)c4ccccc4)C(C)=C([C@@H](OC(C)=O)C(=O)[C@]12C)C3(C)C` [Prodrug 4c, 7-palmitate-paclitaxel], in data set [2], the Solubilized worked out at 1.62 ± 0.03 mg/mL, the prodrug w/w % came to 21.6%, the “prodrug:caprolactone” value is 33.3 mmol:mol and the “Diameter (intensity)” value was determined as 44 ± 2 nm. Also, the “Solubilized (in parentheses)” value in data set [2] turned out to be 3.0 ± 0.9 mg/mL. For the same compound, the “log Po/w” value in data set [4] is on record as 4.48 ± 0.06.
On to `CCCCCCCCCCCC(=O)O[C@H]1C[C@H]2OC[C@@]2(OC(C)=O)[C@H]2[C@H](OC(=O)c3ccccc3)[C@]3(O)C[C@H](OC(=O)[C@H](O)[C@@H](NC(=O)c4ccccc4)c4ccccc4)C(C)=C([C@@H](OC(C)=O)C(=O)[C@]12C)C3(C)C` [Prodrug 4b], for which, in data set [2], the Solubilized worked out at 1.47 ± 0.03 mg/mL, the prodrug w/w % was determined as 16.4%, the “prodrug:caprolactone” value is given as 31.8 mmol:mol and the “Diameter (intensity)” value is recorded as 27 ± 5 nm. In data set [2], the “Solubilized (in parentheses)” value worked out at 2.2 ± 0.5 mg/mL. The “log Po/w” value in data set [4] amounted to 4.59 ± 0.18.
Consider `C=CCNC1=C2C[C@@H](C)C[C@H](OC)[C@H](O)[C@@H](C)/C=C(\C)[C@H](OC(N)=O)[C@@H](OC)/C=C\C=C(/C)C(=O)NC(=CC1=O)C2=O` [Prodrug 17-AAG], for which the MTD dog in data set [1] (in vivo) is 500 mg/m^2. The dose limiting toxicity entry in data set [5] (Phase I) was “GI toxicity to be dose limiting”. In addition, the “suggested Phase II dosing” value in data set [5] (from Phase I results) is reported as 40 mg/m^2.
For the compound `CCCCCC(=O)O[C@H]1C[C@H]2OC[C@@]2(OC(C)=O)[C@H]2[C@H](OC(=O)c3ccccc3)[C@]3(O)C[C@H](OC(=O)[C@H](O)[C@@H](NC(=O)c4ccccc4)c4ccccc4)C(C)=C([C@@H](OC(C)=O)C(=O)[C@]12C)C3(C)C` [Prodrug 4a], in data set [2], the Solubilized is 1.55 ± 0.04 mg/mL, the prodrug w/w % was found to be 17.1%, the “prodrug:caprolactone” value is 36.5 mmol:mol and the “Diameter (intensity)” value was 34 ± 4 nm. Besides, the “Solubilized (in parentheses)” value in data set [2] was 5.1 ± 0.5 mg/mL. For the same compound, the “log Po/w” value in data set [4] was determined as 4.43 ± 0.06.
In the case of `CCCCCCCCCCCCCCCCNC1=C2CC(C)CC(OC)C(O)C(C)C=C(C)C(OC(N)=O)C(OC)C=CC=C(C)C(=O)NC(=CC1=O)C2=O` (stereo not shown) [17-amino-hexyldecyl-17-demethoxygeldanamycin], the “Diff Coef” value in data set [6] was 1.69 × 10^−20 cm2/s. In addition, the w/w drug/carrier in data set [6] is on record as 20 ± 2%. Moreover, the Conc in data set [6] worked out at 1500 µg/mL. For the same compound, the “time after which almost/substantially all the drug is released” value in data set [6] was “about 12 days”. Further, the fraction released in data set [6] (time 0 days) is on record as 0; in data set [6] (time 0.83 days) it was 0; in data set [6] (time 2 days) it was 0.1398; in data set [6] (time 4 days) it was 0.3551; in data set [6] (time 6 days) it was 0.3985; in data set [6] (time 8 days) it was 0.6364. For the same compound, the results for the fraction released in data set [6] (time 10 days) and in data set [6] (time 12 days) were 0.7517 and 0.8238, respectively. For the same compound, in data set [4], the “Log Po/w” value was 4.30.
Consider `CCCCCCCCCCCCCCCC(=O)O[C@@H](C(=O)O[C@H]1C[C@@]2(O)[C@@H](OC(=O)c3ccccc3)[C@@H]3[C@]4(OC(C)=O)CO[C@@H]4C[C@H](O)[C@@]3(C)C(=O)[C@H](OC(C)=O)C(=C1C)C2(C)C)[C@@H](NC(=O)c1ccccc1)c1ccccc1` [Prodrug 5c, 2-palmitate-paclitaxel], for which, in data set [2], the Solubilized was determined as 1.85 ± 0.05 mg/mL, the prodrug w/w % was 19.8%, the “prodrug:caprolactone” value is recorded as 40.0 mmol:mol and the “Diameter (intensity)” value is recorded as 37 ± 6 nm. Further, the “Solubilized (in parentheses)” value in data set [2] is > 3 mg/mL. In data set [4], the “log Po/w” value is recorded as 4.51 ± 0.04.
Regarding `COC1C=CC=C(C)C(=O)NC2=CC(=O)C(NCCO)=C(CC(C)CC(OC)C(O)C(C)C=C(C)C1OC(N)=O)C2=O` (stereo not shown) [17-hydroxyethylamino-17-demethoxygeldanamycin, reference compound], in data set [7], the IC50 (in general, the midpoint of a concentration-inhibition curve) came to 73 nM.
Take `CCCCCC(=O)O[C@@H](C(=O)O[C@H]1C[C@@]2(O)[C@@H](OC(=O)c3ccccc3)[C@@H]3[C@]4(OC(C)=O)CO[C@@H]4C[C@H](O)[C@@]3(C)C(=O)[C@H](OC(C)=O)C(=C1C)C2(C)C)[C@@H](NC(=O)c1ccccc1)c1ccccc1` [Prodrug 5a]: in data set [2], the Solubilized is 1.42 ± 0.11 mg/mL, the prodrug w/w % was 17.8%, the “prodrug:caprolactone” value is listed as 33.4 mmol:mol and the “Diameter (intensity)” value was found to be 32 ± 0 nm. Moreover, in data set [2], the “Solubilized (in parentheses)” value is > 3 mg/mL. In addition, the “log Po/w” value in data set [4] came out at 4.45 ± 0.03.
For `CCCCCCCCCCCC(=O)OC(C(=O)OC1CC2(O)C(OC(=O)c3ccccc3)C3C4(OC(C)=O)COC4CC(O)C3(C)C(=O)C(OC(C)=O)C(=C1C)C2(C)C)C(NC(=O)c1ccccc1)c1ccccc1` (stereo not shown) [Prodrug 5b], in data set [2], the Solubilized amounted to 1.57 ± 0.02 mg/mL, the prodrug w/w % is given as 17.3%, the “prodrug:caprolactone” value is on record as 34.0 mmol:mol and the “Diameter (intensity)” value stood at 28 ± 0 nm. Also, in data set [2], the “Solubilized (in parentheses)” value was > 3 mg/mL. The “log Po/w” value in data set [4] turned out to be 4.49 ± 0.03.
As for `CCCCCCCCCCCCCCCC(=O)OCCNC1=C2CC(C)CC(OC)C(O)C(C)C=C(C)C(OC(N)=O)C(OC)C=CC=C(C)C(=O)NC(=CC1=O)C2=O` (stereo not shown) [17-aminoethyl-palmitate-17-demethoxygeldanamycin], the “Diff Coef” value in data set [6] is listed as 3.61 × 10^−20 cm2/s. The w/w drug/carrier in data set [6] was determined as 22 ± 5%. Besides, in data set [6], the Conc worked out at 1700 µg/mL. In addition, the “time after which almost/substantially all the drug is released” value in data set [6] is reported as “about 8 days”. Also, the fraction released was 0 in data set [6] (time 0 days); 0.1695 in data set [6] (time 0.83 days); 0.2916 in data set [6] (time 2 days); 0.6116 in data set [6] (time 4 days); 0.9528 in data set [6] (time 8 days). In data set [7], this compound yielded an IC50 of 350 nM.
On to `CCCCCC(=O)OCCNC1=C2CC(C)CC(OC)C(O)C(C)C=C(C)C(OC(N)=O)C(OC)C=CC=C(C)C(=O)NC(=CC1=O)C2=O` (stereo not shown) [17-aminoethyl-hexonate-17-demethoxygeldanamycin], for which the IC50 in data set [7] was determined as 240 nM.
Turning to `CCCCCCCCCCCC(=O)OCCNC1=C2CC(C)CC(OC)C(O)C(C)C=C(C)C(OC(N)=O)C(OC)C=CC=C(C)C(=O)NC(=CC1=O)C2=O` (stereo not shown) [17-aminoethyl-dodeconate-17-demethoxygeldanamycin], the “Diff Coef” value in data set [6] was 2.55 × 10^−20 cm2/s. Further, the w/w drug/carrier in data set [6] worked out at 21 ± 2%. Further, in data set [6], the Conc came to 1600 µg/mL. Also, the “time after which almost/substantially all the drug is released” value in data set [6] is recorded as “about 8 days”. For the same compound, the fraction released in data set [6] (time 0 days) came to 0; in data set [6] (time 0.83 days) it was 0.1688; in data set [6] (time 2 days), 0.2909; in data set [6] (time 4 days), 0.3431; in data set [6] (time 6 days), 0.8531; in data set [6] (time 8 days) it was 0.9878. The “Log Po/w” value in data set [4] was 4.16.
